# Measured values as given in patent US5952390A, “10-substituted 1,8-dihydroxy-9(10H) anthracenone pharmaceuticals” (Teva Pharmaceutical Industries Ltd., priority 1998, dated 1999).
# Where two headings read alike, the source gives them in different places.
# Assays:
# [1] = biological target: T1, 5-LO in bovine PMNL (Bos taurus, UniProt F1MQ78); test: Bovine PMNL 5-lipoxygenase assay (inhibition of 5-HETE and LTB4 biosynthesis); type: cell-based
# T1 construct: endogenous in cells; host or cells: polymorphonuclear leukocytes isolated from bovine blood
# T1 sequence (F1MQ78 1-674): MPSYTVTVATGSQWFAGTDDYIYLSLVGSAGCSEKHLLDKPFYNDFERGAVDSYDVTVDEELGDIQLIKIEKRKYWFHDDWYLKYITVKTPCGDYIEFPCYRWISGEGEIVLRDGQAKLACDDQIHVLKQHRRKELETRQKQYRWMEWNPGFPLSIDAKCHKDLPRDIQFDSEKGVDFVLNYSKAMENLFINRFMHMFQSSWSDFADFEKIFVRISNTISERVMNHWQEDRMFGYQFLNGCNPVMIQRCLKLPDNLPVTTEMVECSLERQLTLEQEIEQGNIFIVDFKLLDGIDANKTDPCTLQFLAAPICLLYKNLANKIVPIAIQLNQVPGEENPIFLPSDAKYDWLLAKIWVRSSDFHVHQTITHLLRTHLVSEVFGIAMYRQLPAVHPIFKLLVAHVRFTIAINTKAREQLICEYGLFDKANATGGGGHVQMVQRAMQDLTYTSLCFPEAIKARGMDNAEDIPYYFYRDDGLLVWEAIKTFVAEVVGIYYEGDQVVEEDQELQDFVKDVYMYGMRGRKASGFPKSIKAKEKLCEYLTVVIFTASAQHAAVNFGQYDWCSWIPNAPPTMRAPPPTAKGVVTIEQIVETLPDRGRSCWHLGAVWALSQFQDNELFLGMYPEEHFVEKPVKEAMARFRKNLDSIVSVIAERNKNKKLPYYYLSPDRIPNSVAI
# [2] = Degradation of 2-deoxy-D-ribose (hydroxyl radical formation)
# Description: This assay followed generally the procedures of Gutteridge, J. M. C., "Reactivity of Hydroxyl and Hydroxyl-Like Radicals Discriminated by Release of Thiobarbituric Acid-Reactive Material from Deoxy Sugars, Nucleosides and Benzoate", Biochem. J., 224, 761-767 (1984) and of Laughton, M. J. et al., "Antioxidant and Prooxidant Actions of the Plant Phenolics Quercetin, Gossypol and Myricetin", Biochem. Pharmacol., 38, 2859-2865 (1989). The following reagents were added to glass tubes in the order and at the final concentrations stated. 0.3 ml KH2 PO4 -KOH buffer, pH 7.4 (30 mM), 0.2 ml H2 O bidist., 0.2 ml 2-deoxy-D-ribose (2 mM), 0.2 ml FeCl3 .cndot.6 H2 O (0.1 mM), 0.1 ml anthracenone derivative (75 μM). Stock solutions of the compounds were made up fresh before use. Appropriate blanks and controls with the vehicle (acetonitrile) were conducted. The final reaction volumes were standardized to 1.0 ml. The reaction mixtures were incubated for 2 h at 37° C. in a shaking water bath. 1.0 ml of 2.8% (w/v) trichloroacetic acid and 1.0 ml of 1% (w/v in 0.05 N NaOH) 2-thiobarbituric acid (TBA) were added, and the samples were heated at 100° C. for 15 min and then cooled in an ice bath (5 min). Then 2.0 ml of the reaction mixtures were treated with 0.05 ml of 36% (w/v) HCl and 2.0 ml of 1-butanol and the mixtures were vigorously shaken in a vortex mixer (Heidolph) for 15 s. The organic layer was separated by centrifugation at 3000 rpm (15 min) and the absorbance at 532 nm was measured against butanol. […]
# The biological assay methods were as follows: LDH release as described in Muller K, Huang H-S, Wiegrebe W, J. Med. Chem. 39, 3132-3138 (1996); bovine PMNL 5-LO assay as described in Muller K, Gurster D, Piwek S, Wiegrebe W, J. Med. Chem. 36, 4099-4107 (1993); and degradation of 2-deoxy-D-ribose as described in Muller K, Gurster D, Biochem. Pharmacol. 46, 1695-1704 (1993). […] Extracellular LDH activity was measured using the UV method with pyruvate and NADH and is expressly in mU/ml. […]
# [3] = test system: HaCaT cells; test: HaCaT keratinocyte proliferation assay; type: cell-based; details: Homo sapiens
# Source text: (§1) The biological assay methods were as follows: LDH release as described in Muller K, Huang H-S, Wiegrebe W, J. Med. Chem. 39, 3132-3138 (1996); bovine PMNL 5-LO assay as described in Muller K, Gurster D, Piwek S, Wiegrebe W, J. Med. Chem. 36, 4099-4107 (1993); and degradation of 2-deoxy-D-ribose as described in Muller K, Gurster D, Biochem. Pharmacol. 46, 1695-1704 (1993). HaCaT keratinocyte proliferation assay was generally described in Muller K, Leukel P, Zeireis K, Gawlik I, J. Med. Chem 37, 1660-1669 (1994). Specifically, the HaCaT cells were incubated with the test compounds (2 microM) for four hours at 37° C. Extracellular LDH activity was measured using the UV method with pyruvate and NADH and is expressly in mU/ml. Appropriate controls with the vehicle were performed (P<0.01; N=3, SD<10%).
# [4] = test system: HaCaT cells; test: LDH release in HaCaT cells; type: cell-based; details: for LDH release versus vehicle control, in words: 2 microM, 37° C., four hours
# Source text: as §1
# Geisel J.; Mahrle, G. "Lactate dehydrogenase release as an indicator of dithranol-induced membrane injury in cultured human keratinocytes", Arch. Dermatol. Res., 282, 325-329 (1990)). Cytotoxicity against cell cultures by the potent cell growth inhibitors was assessed by the activity of lactate dehydrogenase (LDH) activity release into the culture medium. The release of LDH is commonly used as an indicator of plasma membrane damage.
# [5] = test system: psoriasis; details: in vivo; cited from earlier work
# [6] = Reducing activity toward DPPH; details: Table I (Addendum); equimolar amount of test compound
# Description: This assay followed generally the procedures of Blois, M. S., "Antioxidant Determinations by the Use of a Stable Free Radical", Nature, 181, 1199-1200 (1958) and Kato, K. et al., "Studies on Scavengers of Active Oxygen Species. 1. Synthesis and Biological Activity of 2-O-Alkylascorbic Acids", J. Med. Chem., 31, 793-798 (1988). In time studies, 1 ml of test compound solution (10^-4 M) was added to 1 ml of DPPH solution (10^-4 M), each in acetone/PBS (1+1 V/V), and the reduction of DPPH was followed spectrophotometrically at 516 nm. Plots of the reciprocal of DPPH concentrations against time gave straight lines, and the second-orderrate constants were obtained from the slopes and are expressed as mean values (n=3-6). In the cases where DPPH was very fast approximate values are given and expressed as kDPPH >100 or kDPPH >>100M^-1s^-1.
# Because a radical scavenging antioxidant reacts rapidly with the stable free radical 2,2-diphenyl-1-picrylhydrazyl (DPPH), Blois, M. S., "Antioxidant Determination by the Use of a Stable Free Radical", Nature, 181, 1199-1200 (1958); Kato, K. et al., "Studies on Scavengers of Active Oxygen Species. I. Synthesis and Biological Activity of 2-O-Alkylascorbic Acids", J. Med. Chem., 31, 793-798 (1988), the reactivities of the new compounds with DPPH were determined by decrease in absorbance at 516 nm.
# [7] = Lipid peroxidation in bovine brain phospholipid liposomes; details: Table I (Addendum); n = 3 or more; standard errors average 20%; read-out: LPO IC50
# Description: Phospholipids were prepared essentially as described by Gutteridge, J. M. C., "The Measurement of Malondialdehyde in Peroxidised Ox-Brain Phospholipid Liposomes", Anal. Biochem., 82, 76-82 (1977). Bovine brain, cooled on ice, was freed from blood vessels and washed repeatedly with 0.15M NaCl, pH 7.4. It was cut to pieces and then macerated with an ultra-turrax, passed through a close-meshed sieve, and extracted four times with four times the volume of acetone. The extraction mixture was filtered by suction to remove the acetone, the residue was dried under vacuum, and then repeatedly extracted with petroleum ether (40-60) using twice the volume of the original brain homogenate. The combined extracts were filtered, dried at 45° C., and dissolved in ether (one fifth of the original brain volume). The mixture was treated with five times the volume of acetone, and the resulting precipitate was collected by suction-filtration, dried and stored under N2 at -20° C. in the dark. Bovine brain phospholipids were weighed into glass tubes and shaken in a vortex mixer (Heidolph) in the presence of five small glass beads (.phi. 4 mm) for 1 min. […]
# The following reagents were added to glass tubes in the order and at the final concentrations stated. […] The organic layer was separated by centrifugation at 3000 rpm (15 min) and the absorbance at 532 nm was measured against butanol.
# [8] = Stability at pH 7.4 in phosphate buffer under lipoxygenase assay incubation; type: physicochemical; details: pH 7.4, phosphate buffer, lipoxygenase assay conditions
# Description: In connection with confirming the resistance to metabolic degradation of the compounds of the invention, the following procedures will be of interest. C-10-acylated compounds of Tanzer et al., Arch. Pharm., 322, 441-444 (1989) were determined to be stable at pH 7.5 when incubated for glucose-6-phosphate dehydrogenase inhibition assays. […] The compounds of the present invention are stable at pH 7.4 (in phosphate buffer) when incubated for the lipoxygenase assay. […] These procedures are expected to be useful in confirming the metabolic stability of the compounds of the invention.
# [9] = test system: LTB4 production in human neutrophils; details: depending on cell density; cited from earlier work
# [10] = pH 7.5; cited from earlier work
# [11] = test system: skin; details: topical/therapeutic application; cited from earlier work
# [12] = test system: cultured human keratinocytes; details: cited from earlier work
# [13] = octanol-water; cited from earlier work
# [14] = Table V, 2 μM test compound (Example 8)
# [15] = Table IV, N = 3, P < 0.01, read-out: AA IC50 (antiproliferative activity)
# [16] = Table IV, 2 μM test compound, N = 3, SD < 10%
structure (smiles),measurement,setting,value
"CC(CCC(=O)C1c2cccc(O)c2C(=O)c2c(O)cccc21)c1ccccc1 (racemic) [Compound Iw, (R,S)-1,8-dihydroxy-10-(1-oxo-4-phenylpentyl)-9(10H)-anthracenone]",IC50,"[1]; Table V, bovine PMNL",300 nM
same,"DD(OH), deoxyribose degradation","[2]; Table V, footnotes same as in Example 8",< 0.3 μmol of malondialdehyde/mmol o
same,IC50,"[3]; Table V, footnotes same as in Example 8, read-out: AA IC50 (antiproliferative activity)",800 nM
same,LDH release,[4]; [14],171 mU
O=C1c2ccccc2Cc2cccc(O)c21 [1-hydroxy-9(10H)-anthracenone],"antipsoriatic efficacy, in words",[5],effective in the treatment of psoriasis
"O=C1c2c(O)cccc2Cc2cccc(O)c21 [Anthralin, 1,8-dihydroxy-9(10H)-anthracenone]",kDPPH,[6],24.2 ± 4.2 M⁻¹ s⁻¹
same,IC50,[7],12000 nM
same,IC50,[3]; [15],700 nM
same,"LDH release versus vehicle control, in words",[4],significantly exceeded that of the vehicle control
same,LDH release,[4]; [16],294 mU
same,LDH release,[4]; [14],294 mU
same,time to degradation,[8],≤ 2 h
same,IC50,[9],7000 to 74000 nM
same,"stability under G6PD inhibition assay incubation, in words",[10],degraded almost completely
same,"antipsoriatic efficacy, in words",[5],effective in the treatment of psoriasis
same,"irritation, in words",[11],non-affected skin surrounding a psoriatic lesion to which anthralin is applied is frequently irritated
same,"membrane damage, in words",[12],"cause membrane damage, but did not directly lead to substantial membrane destruction"
"Cc1ccc(CC(=O)C2c3cccc(O)c3C(=O)c3c(O)cccc32)cc1 [Compound Iv, 1,8-dihydroxy-10-[2-(4-methylphenyl)-1-oxoethyl]-9(10H)-anthracenone]",IC50,[1],600 nM
same,"DD(OH), deoxyribose degradation","[2]; Table IV, released by 75 μm test compound (so in the source)",< 0.3 μmol of malondialdehyde/mmol o
same,IC50,[3]; [15],700 nM
same,"LDH release versus vehicle control, in words",[4],not significantly different as compared to vehicle controls
same,LDH release,[4]; [16],145 mU
"O=C1c2c(O)cccc2C(C(=O)CCCc2ccccc2)c2cccc(O)c21 [Ip, 1,8-Dihydroxy-10-(1-oxo-4-phenylbutyl)-9(10H)-anthracenone]",effectiveness as inhibitor of lipoxygenase relative to anthralin,[1]; compared with anthralin,~100 times
"CC(Cc1ccc(O)c(O)c1)C(C)Cc1ccc(O)c(O)c1 (centres unmarked) [Nordihydroguaiaretic acid (NDGA), Nordihydroguaiaretic acid]",IC50,[1],400 nM
c1ccc2ccccc2c1 [naphthalene],log P (known values of calibration compounds),[13],3.44
CC(=O)Oc1cccc2cc3cccc(OC(C)=O)c3c(OC(C)=O)c12 [triacetoxyanthracene],inhibition at 30 µM,"[1]; at 30 μM, bovine PMNL",15%
